Earlier results in patent US20250213514A1, “STABLE, LIQUID PHARMACEUTICAL COMPOSITIONS COMPRISING MELPHALAN” (GOOD HEALTH, LLC, priority 2022, published 2025).
Like-named read-outs stand apart in the source and are kept apart here.

For `N[C@@H](Cc1ccc(N(CCCl)CCCl)cc1)C(=O)O` [Melphalan], the Solubility (in ethanol, methanol) is given as “slightly soluble”, the Solubility (in propylene glycol and dilute mineral acids) is given as “soluble” and the Solubility (in water, chloroform, and ether) is given as “practically insoluble”.
